Reference: US5405873A, “Substituted acetamide derivatives” (Banyu Pharmaceutical Co., Ltd., priority 1992, dated 1995)

Experiments:
ACAT = ACAT inhibitory activity (rabbit liver microsomal fraction); format: biochemical, Japanese-White Rabbit; conditions: [1-14C]oleyl-CoA and exogenous cholesterol
Procedure: Enzyme specimen ACAT is prepared from liver microsomal fraction of Japanese-White Rabbit in accordance with the method described in Smith et al., Clinica Chimica Acta, 158, 271 (1986). The ACAT activity is determined by measuring the amount of labeled cholesterol esters from [1-^14 C]oleyl-CoA and exogenous cholesterol also according to the method of Smith et al., ibid. Thus, inhibition rates (%) of the compounds of the present invention against ACAT at a concentration of 0.3 μM are shown in the following table, together with the results of Melinamide (N-(α-methylbenzyl)linoleamide) and YM-17E (1,3-bis[[1-cycloheptyl-3-(p-dimethylaminophenyl)ureido]methyl]-benzene dihydrochloride), as reference compounds, measured at the same time.

[1] = test system: absorption of cholesterol; assay: Cholesterol absorption inhibitory activity in rat; format: in vivo, Sprague-Dawley rats; conditions: 100 mg/kg oral; [3H] cholesterol emulsion; serum radioactivity 4 hours after administration
Procedure: Cholesterol absorption inhibitory activity is determined by the method described in Fukushima et al., Journal of Atherosclerosis Research, 10, 403 (1969).
That is, Sprague-Dawley rats of 7 weeks age weighing 200 to 250 g are divided into groups at random and fed for 7 days with free access to diet. Then, the compound of the present invention and [^3 H] cholesterol emulsion (suspension of 6.96 mg of cholesterol and 177 mg of triolein in 0.8 ml of 6.8% skimmed milk aqueous solution) prepared into a dose indicated are forcedly given orally (Experiment Group).
As a control group, the solvent used to suspend the compound of the present invention instead of the compound of the present invention in Experiment Group and [^3 H] cholesterol emulsion are forcedly administered orally.
Four hours after administration, blood is collected from the tail. The cholesterol absorption inhibitory activity of the compound is determined in terms of the radiation activity of [^3 H) observed in serum by comparing between the control group and the experiment group. Inhibition rate (%) at 100 mg/kg is calculated and the results are shown in the following table together with the result of YM-17E used as a reference compound.

SMILES | Inhibition Rate at 0.3 μM (ACAT) | Inhibition Rate at 100 mg/kg [1]
CCCCCN(C/C=C/C#CC(C)(C)C)CCNC(=O)CSc1cccc2ccccc12 [Example 1, (E)-N-[2-[N'-Pentyl-(6,6-dimethyl-2-hepten-4-ynyl)amino]ethyl]-(1-naphthylthio)acetamide] | 70% | –
CCCCCN(CC#CC#CC(C)(C)C)CCNC(=O)CSc1cccc2ccccc12 [Example 2, N-[2-[N'-Pentyl-(6,6-dimethyl-2,4-heptadiynyl)amino]ethyl]-(1-naphthylthio)acetamide] | 76% | –
CCCCCN(CCCC#CC(C)(C)C)CCNC(=O)CSc1cccc2ccccc12 [Example 3, N-[2-[N'-Pentyl-(6,6-dimethyl-4-heptynyl)amino]ethyl]-(1-naphthylthio)acetamide] | 68% | –
CCCCCN(CC#CC#CC(C)(C)C)CCNC(=O)CSc1ccc2ccccc2c1 [Example 4, N-[2-[N'-Pentyl-(6,6-dimethyl-2,4-heptadiynyl)amino]ethyl]-(2-napthylthio)acetamide] | 78% | –
CCCCCN(C/C=C/C#CC(C)(C)C)CCNC(=O)CSc1ccc2ccccc2c1 [Example 6, (E)-N-[2-[N'-Pentyl-(6,6-dimethyl-2-hepten-4-ynyl)amino]ethyl]-(2-naphthylthio)acetamide] | – | 73%
CCCCCN(CC#CC#CC(C)(C)C)CCNC(=O)CSc1ccc(C)c(C)c1 [Example 10, N-[2-[N'-Pentyl-(6,6-dimethyl-2,4-heptadiynyl)amino]ethyl]-(3,4-dimethylphenylthio)acetamide] | 84% | –
CCCCCN(CC#CC#CC(C)(C)C)CCNC(=O)CSc1c(C)cccc1C [Example 11, N-[2-[N'-Pentyl-(6,6-dimethyl-2,4-heptadiynyl)amino]ethyl]-(2,6-dimethylphenylthio)acetamide] | 87% | –
CCCCCN(CC#CC#CC(C)(C)C)CCNC(=O)CSc1ccc2oc3ccccc3c2c1 [Example 24, N-[2-[N'-Pentyl-(6,6-dimethyl-2,4-heptadiynyl)amino]ethyl]-(2-dibenzofuranylthio)acetamide] | 64% | –
CCCCCN(CC#CC#CC(C)(C)C)CCNC(=O)CSc1c2ccccc2cc2ccccc12 [Example 26, N-[2-[N'-Pentyl-(6,6-dimethyl-2,4-heptadiynyl)amino]ethyl]-(9-anthrylthio)acetamide] | 66% | –
CCCCCN(CC#CC#CC(C)(C)C)CCNC(=O)C[S+]([O-])c1cccc2ccccc12 (stereo not shown) [Example 29, N-[2-[N'-Pentyl-(6,6-dimethyl-2,4-heptadiynyl)amino]ethyl]-(1-naphthylsulfinyl)acetamide] | 70% | –
CCCCCN(CC#CC#CC(C)(C)C)CCNC(=O)CS(=O)(=O)c1cccc2ccccc12 [Example 30, N-[2-[N'-Pentyl-(6,6-dimethyl-2,4-heptadiynyl)amino]ethyl]-(1-naphthylsulfonyl)acetamide] | 75% | –
CCCCN(CC#CC#CC(C)(C)C)CCNC(=O)CSc1cccc2ccccc12 [Example 34, N-[2-[N'-Butyl-(6,6-dimethyl-2,4-heptadiynyl)amino]ethyl]-(1-naphthylthio)acetamide] | 61% | –
CC(C)CCCN(CC#CC#CC(C)(C)C)CCNC(=O)CSc1cccc2ccccc12 [Example 36, N-[2-[N'-(4-Methylpentyl)-(6,6-dimethyl-2,4-heptadiynyl)amino]ethyl]-(1-naphthylthio)acetamide] | 75% | –
CCCCC/C=C\C/C=C\CCCCCCCC(=O)NC(C)c1ccccc1 (stereo not drawn) [Melinamide, N-(α-methylbenzyl)linoleamide, reference compound] | 15% | –
CN(C)c1ccc(NC(=O)N(Cc2cccc(CN(C(=O)Nc3ccc(N(C)C)cc3)C3CCCCCC3)c2)C2CCCCCC2)cc1.Cl.Cl [YM-17E, 1,3-bis[[1-cycloheptyl-3-(p-dimethylaminophenyl)ureido]methyl]-benzene dihydrochloride, reference compound] | 50% | 63%
